Results on 25 molecules are retold here after patent publication US9604975B2, “Indolyl-pyridone derivatives having checkpoint kinase 1 inhibitory activity” (Vernalis (R&D) Ltd., priority 2009, dated 2017).

The target of this assay is T1, CHK1 (Homo sapiens, UniProt O14757).
T1 construct: His; purchased Invitrogen
T1 sequence (O14757 1-476): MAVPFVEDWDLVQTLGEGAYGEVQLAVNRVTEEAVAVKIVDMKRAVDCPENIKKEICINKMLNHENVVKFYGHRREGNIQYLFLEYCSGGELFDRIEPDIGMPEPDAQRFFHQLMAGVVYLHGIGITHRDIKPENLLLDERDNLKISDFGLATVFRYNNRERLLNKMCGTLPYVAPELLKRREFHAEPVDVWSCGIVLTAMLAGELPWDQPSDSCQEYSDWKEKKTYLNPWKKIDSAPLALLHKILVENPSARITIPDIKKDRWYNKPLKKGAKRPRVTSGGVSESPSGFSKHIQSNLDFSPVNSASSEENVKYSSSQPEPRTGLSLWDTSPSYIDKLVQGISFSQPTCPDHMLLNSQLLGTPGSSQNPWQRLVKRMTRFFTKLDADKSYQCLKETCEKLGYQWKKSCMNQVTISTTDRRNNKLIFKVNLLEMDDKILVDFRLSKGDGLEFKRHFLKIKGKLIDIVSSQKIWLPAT
The assay can be described thus: CHK1 Enzyme Assay (phosphorylation of Chktide peptide, 33P-ATP filter assay). The class given is biochemical. The note with it: 12.5 nM His-CHK1, 0.01 mM ATP, 40 minutes at 30° C.; read-out: CHK1 Enzyme Activity (IC50 range). The method, boiled down:
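Filter-binding radiometric readout of 33P incorporation into Chktide (14.8 μM), after a 40 min, 30 °C reaction at pH 7.5 (50 mM Hepes-NaOH, 0.1 mg/mL BSA). The reaction contained 12.5 nM His-tagged CHK1, inhibitor and 0.01 mM cold ATP plus labelled ATP.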
On to `CC(C)(COc1ccc2[nH]c(-c3cc(NC(=O)c4cnn(Cc5ccccc5)c4)c[nH]c3=O)cc2c1)CN1CCOCC1` [Example 184, 1-Benzyl-1H-pyrazole-4-carboxylic acid {5-[5-(2,2-dimethyl-3-morpholin-4-yl-propoxy)-1H-indol-2-yl]-6-oxo-1,6-dihydro-pyridin-3-yl}-amide], for which the IC50 (commonly the concentration that inhibits the measured activity by half) is below 100 nM.

With `CN1CCN(Cc2ccc3[nH]c(-c4cc(C(=O)Nc5cnn(Cc6ccc(F)c(F)c6)c5)c[nH]c4=O)cc3c2)CC1` [Example 104, 5-[5-(4-Methyl-piperazin-1-ylmethyl)-1H-indol-2-yl]-6-oxo-1,6-dihydro-pyridine-3-carboxylic acid [1-(3,4-difluoro-benzyl)-1H-pyrazol-4-yl]-amide], the 50% inhibitory concentration (IC50) was below 100 nM.

Turning to `O=C(Nc1c[nH]c(=O)c(-c2cc3cc(OCCN4CCCCC4)ccc3[nH]2)c1)c1cnn(Cc2ccc(C(F)(F)F)cc2)c1` [Example 121, 1-(4-Trifluoromethyl-benzyl)-1H-pyrazole-4-carboxylic acid {6-oxo-5-[5-(2-piperidin-1-yl-ethoxy)-1H-indol-2-yl]-1,6-dihydro-pyridin-3-yl}-amide], the IC50 is below 100 nM.

On to `CCN(CCO)Cc1ccc2[nH]c(-c3cc(C(=O)Nc4cnn(Cc5ccc(F)c(F)c5)c4)c[nH]c3=O)cc2c1` [Example 102, 5-(5-{[Ethyl-(2-hydroxyethyl)amino]-methyl}-1H-indol-2yl)-6-oxo-1,6-dihydropyridine-3-carboxylic acid[1-(3,4-difluorobenzyl)-1H-pyrazol-4-yl]-amide], for which the 50% inhibitory concentration (IC50) was below 100 nM.

As for `CN(C)[C@@H]1CCN(Cc2ccc3[nH]c(-c4cc(NC(=O)c5cnn(Cc6ccccc6)c5)c[nH]c4=O)cc3c2)C1` [Example 172, 1-Benzyl-1H-pyrazole-4-carboxylic acid {5-[5-((R)-3-dimethylamino-pyrrolidin-1-ylmethyl)-1H-indol-2-yl]-6-oxo-1,6-dihydro-pyridin-3-yl}-amide], the IC50 was below 100 nM.

Regarding `CC1CCN(Cc2ccc3[nH]c(-c4cc(NC(=O)c5cnn([C@@H](C)c6ccccc6)c5)c[nH]c4=O)cc3c2)CC1` [Example 165, 1-((S)-1-Phenyl-ethyl)-1H-pyrazole-4-carboxylic acid {5-[5-(4-methyl-piperidin-1-ylmethyl)-1H-indol-2-yl]-6-oxo-1,6-dihydro-pyridin-3-yl}-amide], the IC50 was below 100 nM.

With `Cc1ccc(Cn2cc(C(=O)Nc3c[nH]c(=O)c(-c4cc5cc(OCCN6CCOCC6)ccc5[nH]4)c3)cn2)cc1` [Example 118, 1-(4-Methyl-benzyl)-1H-pyrazole-4-carboxylic acid {5-[5-(2-morpholin-4-yl-ethoxy)-1H-indol-2-yl]-6-oxo-1,6-dihydro-pyridin-3-yl}-amide], the IC50 was below 100 nM.

With `CC(c1ccccc1)n1cc(C(=O)Nc2c[nH]c(=O)c(-c3cc4cc(CN5CCOCC5)ccc4[nH]3)c2)cn1` (stereo not shown) [Example 86, 1-(1-Phenyl-ethyl)-1H-pyrazole-4-carboxylic acid [5-(5-morpholin-4-ylmethyl-1H-indol-2-yl)-6-oxo-1,6-dihydro-pyridin-3-yl]-amide], the IC50 was below 100 nM.

For the molecule `CCN(CC)CCCOc1ccc2[nH]c(-c3cc(NC(=O)c4cnn(Cc5ccc(C)cc5)c4)c[nH]c3=O)cc2c1` [Example 123, 1-(4-Methyl-benzyl)-1H-pyrazole-4-carboxylic acid {5-[5-(3-diethylamino-propoxy)-1H-indol-2-yl]-6-oxo-1,6-dihydro-pyridin-3-yl}-amide], the IC50 is below 100 nM.

Turning to `Cc1ccc(Cn2cc(C(=O)Nc3c[nH]c(=O)c(-c4cc5cc(CN6CCN(CCO)CC6)ccc5[nH]4)c3)cn2)cc1` [Example 62, 1-(4-Methyl-benzyl)-1H-pyrazole-4-carboxylic acid (5-{5-[4-(2-hydroxy-ethyl)-piperazin-1-ylmethyl]-1H-indol-2-yl}-6-oxo-1,6-dihydro-pyridin-3-yl)-amide], the IC50 was below 100 nM.

Take `CC(c1ccccc1)n1cc(C(=O)Nc2c[nH]c(=O)c(-c3cc4cc(CN5CCCCC5)ccc4[nH]3)c2)cn1` (stereo not shown) [Example 85, 1-(1-Phenyl-ethyl)-1H-pyrazole-4-carboxylic acid [6-oxo-5-(5-piperidin-1-ylmethyl-1H-indol-2-yl)-1,6-dihydro-pyridin-3-yl]-amide]: the IC50 was below 100 nM.

`O=C(Nc1c[nH]c(=O)c(-c2cc3cc(CN4CC[C@@H](F)C4)ccc3[nH]2)c1)c1cnn(Cc2ccccc2)c1` [Example 174, 1-Benzyl-1H-pyrazole-4-carboxylic acid {5-[5-((R)-3-fluoro-pyrrolidin-1-ylmethyl)-1H-indol-2-yl]-6-oxo-1,6-dihydro-pyridin-3-yl}-amide]: the IC50 was below 100 nM.

For the molecule `Cc1ccc(Cn2cc(C(=O)Nc3c[nH]c(=O)c(-c4cc5cc(CN6CC(O)C6)ccc5[nH]4)c3)cn2)cc1` [Example 42, 1-(4-Methyl-benzyl)-1H-pyrazole-4-carboxylic acid {5-[5-(3-hydroxy-azetidin-1-ylmethyl)-1H-indol-2-yl]-6-oxo-1,6-dihydro-pyridin-3-yl}-amide], the IC50 is below 100 nM.

Regarding `Cc1ccc(Cn2cc(C(=O)Nc3c[nH]c(=O)c(-c4cc5cc(OCCN6CCCCC6)ccc5[nH]4)c3)cn2)cc1` [Example 115, 1-(4-Methyl-benzyl)-1H-pyrazole-4-carboxylic acid {6-oxo-5-[5-(2-piperidin-1-yl-ethoxy)-1H-indol-2-yl]-1,6-dihydro-pyridin-3-yl}-amide], the IC50 was below 100 nM.

On to `O=C(Nc1c[nH]c(=O)c(-c2cc3cc(CN4CCC(O)CC4)ccc3[nH]2)c1)c1cnn(Cc2ccc(Cl)cc2)c1` [Example 48, 1-(4-Chloro-benzyl)-1H-pyrazole-4-carboxylic acid {5-[5-(4-hydroxy-piperidin-1-ylmethyl)-1H-indol-2-yl]-6-oxo-1,6-dihydro-pyridin-3-yl}-amide], for which the IC50 was below 100 nM.

Regarding `CN1CCN(Cc2ccc3[nH]c(-c4cc(NC(=O)c5cnn(Cc6ccc(Cl)cc6)c5)c[nH]c4=O)cc3c2)CC1` [Example 53, 1-(4-Chloro-benzyl)-1H-pyrazole-4-carboxylic acid {5-[5-(4-methyl-piperazin-1-ylmethyl)-1H-indol-2-yl]-6-oxo-1,6-dihydro-pyridin-3-yl}-amide], the half-inhibitory concentration (IC50) was below 100 nM.

Consider `CCN(CC)CCOc1ccc2[nH]c(-c3cc(NC(=O)c4cnn(Cc5ccc(C(C)(C)C)cc5)c4)c[nH]c3=O)cc2c1` [Example 154], for which the IC50 is 500 to 1500 nM.

Turning to `Cc1[nH]c(=O)c(-c2cc3ccccc3[nH]2)cc1NC(=O)c1cnn(Cc2ccccc2)c1` [Example 31, 1-Benzyl-1H-pyrazole-4-carboxylic acid [5-(1H-indol-2-yl)-2-methyl-6-oxo-1,6-dihydro-pyridin-3-yl]-amide], the IC50 was below 100 nM.

In the case of `Cc1ccc(Cn2cc(C(=O)Nc3c[nH]c(=O)c(-c4cc5cc(CNCCO)ccc5[nH]4)c3)cn2)cc1` [Example 54, 1-(4-Methyl-benzyl)-1H-pyrazole-4-carboxylic acid {5-[5-[(2-hydroxy-ethylamino)-methyl]-1H-indol-2-yl}-6-oxo-1,6-dihydro-pyridin-3-yl]-amide], the IC50 is below 100 nM.

Regarding `O=C(Nc1c[nH]c(=O)c(-c2cc3cc(CNCCO)ccc3[nH]2)c1)c1cnn(Cc2ccc(Cl)cc2)c1` [Example 46, 1-(4-Chloro-benzyl)-1H-pyrazole-4-carboxylic acid (5-{5-[(2-hydroxy-ethylamino)-methyl]-1H-indol-2-yl}-6-oxo-1,6-dihydro-pyridin-3-yl)-amide], the IC50 is below 100 nM.

For `Cc1ccc(Cn2cc(C(=O)Nc3c[nH]c(=O)c(-c4cc5cc(CN6CCC(CO)CC6)ccc5[nH]4)c3)cn2)cc1` [Example 39, 1-(4-Methyl-benzyl)-1H-pyrazole-4-carboxylic acid {5-[5-(4-hydroxymethyl-piperidin-1-ylmethyl)-1H-indol-2-yl]-6-oxo-1,6-dihydro-pyridin-3-yl}-amide], the IC50 is below 100 nM.

As to `O=C(Nc1c[nH]c(=O)c(-c2cc3ccccc3[nH]2)c1)c1cnn(Cc2cccc(C(F)(F)F)c2)c1` [Example 23, 1-(3-Trifluoromethyl-benzyl)-1H-pyrazole-4-carboxylic acid [5-(1H-indol-2-yl)-6-oxo-1,6-dihydro-pyridin-3-yl]-amide], the IC50 was below 100 nM.

Turning to `CCN(CC)CCCOc1ccc2[nH]c(-c3cc(NC(=O)c4cnn(Cc5ccccc5)c4)c[nH]c3=O)cc2c1` [Example 139, 1-Benzyl-1H-pyrazole-4-carboxylic acid {5-[5-(3-diethylamino-propoxy)-1H-indol-2-yl]-6-oxo-1,6-dihydro-pyridin-3-yl}-amide], the IC50 was below 100 nM.

In the case of `Cc1cccc(Cn2cc(NC(=O)c3c[nH]c(=O)c(-c4cc5ccccc5[nH]4)c3)cn2)c1` [Example 4, 5-(1H-Indol-2-yl)-6-oxo-1,6-dihydro-pyridine-3-carboxylic acid[1-(3-methyl-benzyl)-1H-pyrazol-4-yl]-amide], the half-inhibitory concentration (IC50) is below 100 nM.

For the molecule `Cc1ccc(Cn2cc(NC(=O)c3c[nH]c(=O)c(-c4cc5ccccc5[nH]4)c3)cn2)cc1F` [Example 14, 5-(1H-Indol-2-yl)-6-oxo-1,6-dihydro-pyridine-3-carboxylic acid [1-(3-fluoro-4-methyl-benzyl)-1H-pyrazol-4-yl]-amide], the half-maximal inhibitory concentration (IC50) fell in the range of 100 to 500 nM.
